Numbers after ± are expanded uncertainties.
Conditions: 298.15 K; 101.33 kPa; Liquid; Alternating current cell with electrodes

electrical conductivity: 0.000129 ± 1e-06 S/m
Structure (SMILES): O [water]

From the NIST ThermoML archive (doi:10.1016/j.fluid.2015.05.043)
